Assay results as given in ChEMBL document CHEMBL1201862, “PubChem BioAssay data set” (2004).
Calls of active or inactive are those of the source.

What was measured:
[1] = HEp-2 cell cytotoxicity, dose response, cytotoxicity control for RSV inhibitor project, HTS (AID 2410); type: functional; conditions: human respiratory syncytial virus
[2] = cells
[3] = cytotoxicity in KRAS-transformed pancreatic duct cells, primary screen, cell-based, fluorescence, HTS (AID 431); type: functional; conditions: Homo sapiens;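 note: cell line used: HPDE-C7K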
[4] = cytotoxicity in HPDE-C7 cells, cell-based, fluorescence, HTS (AID 430); type: functional; conditions: Homo sapiens
[5] = tested on: Streptococcus sp. 'group A'; assay: growth inhibition of control SK(-) GAS strain, dose response, counter-screen for streptokinase expression inhibitor project, luminescence, kanamycin, BacTiterGlo, confirmation (AID 1900); type: functional, organism-based
[6] = tested on: Streptococcus; assay: Group A Streptococcus viability loss, dose response, counter-screen for streptokinase expression inhibitor project, luminescence, BacTiterGlo (AID 1915); type: functional, organism-based;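 note: potency for reduction of bacterial viability or growth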
[7] = THP-1 cell cytotoxicity, dose response, cytotoxicity control for Vif-APOBEC3G degradation inhibitor project, THP-1 cells (AID 1117359); type: functional; conditions: Human immunodeficiency virus 1, THP-1
[8] = target: T1, Polyadenylate-binding protein 1 (Homo sapiens, UniProt P11940); assay: PABP1 MLLE–PAM2 binding inhibitor potency, dose response, biochemical, fluorescence polarization, FITC-PAM2 peptide (AID 602259); type: functional; conditions: read-out: IC50_Mean
[9] = target: T1, Polyadenylate-binding protein 1; assay: PABP1 MLLE–PAM2 interaction inhibitors, dose response, miRNA deadenylation inhibitor project, biochemical, fluorescence polarization, Cy5-PAM2 peptide, secondary (AID 602260); type: functional; conditions: read-out: IC50_Mean
[10] = target: Heat shock protein HSP 90-alpha (Homo sapiens, UniProt P07900); type: functional, organism-based
[11] = target: DNA dC->dU-editing enzyme APOBEC-3G (Homo sapiens, UniProt Q9HC16); assay: Dose Response confirmation of small molecule APOBEC3G DNA Deaminase Inhibitors via a fluorescence-based single-stranded DNA deaminase assay. [Related pubchem assays (depositor defined):AID493012, AID493028]; type: functional
[12] = target: T2, Mannose-6-phosphate isomerase (Homo sapiens, UniProt P34949); assay: human PMI inhibitors, high substrate, primary screen, biochemical, fluorescence intensity, high mannose 6-phosphate (AID 1220)
T2 sequence (P34949 whole entry): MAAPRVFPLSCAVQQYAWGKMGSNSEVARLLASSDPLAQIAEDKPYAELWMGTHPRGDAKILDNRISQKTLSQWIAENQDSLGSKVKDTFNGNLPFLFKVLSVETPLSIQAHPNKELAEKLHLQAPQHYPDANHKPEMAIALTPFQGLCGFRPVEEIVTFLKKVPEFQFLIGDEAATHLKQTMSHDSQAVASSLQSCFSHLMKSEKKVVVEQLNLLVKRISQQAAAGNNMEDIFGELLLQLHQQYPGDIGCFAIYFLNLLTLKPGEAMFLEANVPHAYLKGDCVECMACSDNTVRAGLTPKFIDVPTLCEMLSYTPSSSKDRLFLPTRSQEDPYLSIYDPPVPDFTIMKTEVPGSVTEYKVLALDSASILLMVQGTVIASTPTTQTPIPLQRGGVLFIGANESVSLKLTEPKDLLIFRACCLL

[13] = target: DNA dC->dU-editing enzyme APOBEC-3A (Homo sapiens, UniProt P31941); assay: APOBEC3A DNA deaminase inhibitors, dose response, biochemical (AID 504722); type: functional
[14] = MC4R antagonists, dose response, counter-screen for LGR2 antagonist project, cell-based, plate reader, cherry pick (AID 743444); type: functional;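 note: transfected HEK 293 cells stimulated with alpha-MSH peptide; potency of inhibitors of the alpha-MSH evoked signal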
[15] = LGR2 antagonists, dose response, cell-based, HEK293, CRE-luciferase reporter, cherry pick, set 2 (AID 743343); type: functional;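 note: transfected cells were stimulated with diluted bursicon conditioned medium after compound addition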
[16] = target: Cytochrome P450 2C19 (Homo sapiens, UniProt P33261); assay: Cytochrome panel assay with activity outcomes. Panel member name: p450-cyp2c19 Compounds with AC50 equal or less than 10 uM are considered active; type: functional; conditions: read-out: AC50
[17] = target: T3, Caspase-3 (Homo sapiens, UniProt P42574); type: functional;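 note: Dose-response selectivity test against caspase-3 for candidate inhibitors of sentrin-specific proteases (SENPs)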
T3 sequence (P42574 whole entry): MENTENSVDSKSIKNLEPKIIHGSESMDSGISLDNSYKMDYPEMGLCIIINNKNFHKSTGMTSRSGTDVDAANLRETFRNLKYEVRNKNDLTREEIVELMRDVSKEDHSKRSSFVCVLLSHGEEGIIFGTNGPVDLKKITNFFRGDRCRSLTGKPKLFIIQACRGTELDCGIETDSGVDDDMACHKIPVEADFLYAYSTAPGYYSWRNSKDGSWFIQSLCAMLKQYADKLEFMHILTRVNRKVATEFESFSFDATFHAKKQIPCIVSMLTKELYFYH

[18] = target: T4, Sentrin-specific protease 6 (Homo sapiens, UniProt Q9GZR1); type: functional;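 note: Luminescence-based dose-response confirmatory assay of SENP6 inhibition, following up an ultra-high-throughput screen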
T4 sequence (Q9GZR1 whole entry): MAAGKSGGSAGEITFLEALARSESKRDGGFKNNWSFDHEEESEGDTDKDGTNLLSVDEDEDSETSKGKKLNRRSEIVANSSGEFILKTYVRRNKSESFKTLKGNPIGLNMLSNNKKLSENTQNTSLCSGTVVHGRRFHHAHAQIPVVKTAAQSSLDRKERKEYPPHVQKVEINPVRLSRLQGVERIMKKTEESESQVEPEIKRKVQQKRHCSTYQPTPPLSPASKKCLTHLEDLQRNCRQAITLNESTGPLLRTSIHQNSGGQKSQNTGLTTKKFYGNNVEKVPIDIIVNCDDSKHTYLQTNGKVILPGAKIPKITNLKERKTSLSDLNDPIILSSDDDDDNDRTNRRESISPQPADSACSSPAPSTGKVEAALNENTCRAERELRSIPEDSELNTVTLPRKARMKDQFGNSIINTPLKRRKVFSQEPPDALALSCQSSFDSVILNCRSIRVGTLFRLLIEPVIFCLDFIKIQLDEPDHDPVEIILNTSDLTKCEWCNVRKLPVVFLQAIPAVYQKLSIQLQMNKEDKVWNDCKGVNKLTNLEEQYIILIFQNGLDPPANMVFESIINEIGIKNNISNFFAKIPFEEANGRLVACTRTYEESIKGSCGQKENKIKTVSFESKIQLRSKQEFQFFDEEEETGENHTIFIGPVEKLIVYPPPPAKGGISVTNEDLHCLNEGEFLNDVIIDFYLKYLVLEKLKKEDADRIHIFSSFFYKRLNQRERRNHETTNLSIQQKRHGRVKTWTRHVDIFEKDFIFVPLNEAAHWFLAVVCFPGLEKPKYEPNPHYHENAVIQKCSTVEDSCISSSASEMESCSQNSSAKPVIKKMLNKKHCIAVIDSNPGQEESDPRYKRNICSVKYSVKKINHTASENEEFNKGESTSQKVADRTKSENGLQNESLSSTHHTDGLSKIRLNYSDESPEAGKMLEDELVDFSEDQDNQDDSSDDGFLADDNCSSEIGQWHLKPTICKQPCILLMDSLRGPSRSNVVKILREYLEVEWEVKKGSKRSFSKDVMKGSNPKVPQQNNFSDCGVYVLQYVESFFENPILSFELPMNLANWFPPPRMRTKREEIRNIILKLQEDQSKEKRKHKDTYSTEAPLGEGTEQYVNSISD

[19] = target: T5, Sentrin-specific protease 8 (Homo sapiens, UniProt Q96LD8); type: functional;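 note: luminescence read-out of SENP8 inhibition, dose-response confirmation following an ultra-high-throughput screen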
T5 sequence (Q96LD8 whole entry): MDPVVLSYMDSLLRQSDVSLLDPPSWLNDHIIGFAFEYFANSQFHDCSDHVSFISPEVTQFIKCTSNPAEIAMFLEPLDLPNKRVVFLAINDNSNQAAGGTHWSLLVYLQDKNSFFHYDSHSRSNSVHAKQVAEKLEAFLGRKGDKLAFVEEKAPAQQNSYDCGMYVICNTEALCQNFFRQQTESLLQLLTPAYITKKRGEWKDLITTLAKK

T1 sequence (P11940 whole entry): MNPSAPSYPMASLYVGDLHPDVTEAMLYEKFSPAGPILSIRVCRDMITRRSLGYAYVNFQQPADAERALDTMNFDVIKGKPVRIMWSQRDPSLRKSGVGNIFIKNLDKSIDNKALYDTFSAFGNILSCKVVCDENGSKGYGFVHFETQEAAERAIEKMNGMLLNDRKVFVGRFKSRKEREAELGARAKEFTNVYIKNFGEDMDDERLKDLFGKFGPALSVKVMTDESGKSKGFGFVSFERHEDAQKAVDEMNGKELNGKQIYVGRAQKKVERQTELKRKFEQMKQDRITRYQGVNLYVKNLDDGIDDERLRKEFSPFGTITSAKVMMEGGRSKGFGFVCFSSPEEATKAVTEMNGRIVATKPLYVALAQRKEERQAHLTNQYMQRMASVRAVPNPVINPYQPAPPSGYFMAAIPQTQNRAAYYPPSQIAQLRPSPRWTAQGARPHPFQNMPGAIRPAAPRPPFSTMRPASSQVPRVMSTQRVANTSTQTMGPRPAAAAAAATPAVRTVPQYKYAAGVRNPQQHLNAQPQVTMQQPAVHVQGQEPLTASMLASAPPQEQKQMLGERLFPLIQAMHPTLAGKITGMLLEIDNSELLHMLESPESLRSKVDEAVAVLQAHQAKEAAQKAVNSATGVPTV
DNA dC->dU-editing enzyme APOBEC-3G, sequence (Q9HC16 whole entry): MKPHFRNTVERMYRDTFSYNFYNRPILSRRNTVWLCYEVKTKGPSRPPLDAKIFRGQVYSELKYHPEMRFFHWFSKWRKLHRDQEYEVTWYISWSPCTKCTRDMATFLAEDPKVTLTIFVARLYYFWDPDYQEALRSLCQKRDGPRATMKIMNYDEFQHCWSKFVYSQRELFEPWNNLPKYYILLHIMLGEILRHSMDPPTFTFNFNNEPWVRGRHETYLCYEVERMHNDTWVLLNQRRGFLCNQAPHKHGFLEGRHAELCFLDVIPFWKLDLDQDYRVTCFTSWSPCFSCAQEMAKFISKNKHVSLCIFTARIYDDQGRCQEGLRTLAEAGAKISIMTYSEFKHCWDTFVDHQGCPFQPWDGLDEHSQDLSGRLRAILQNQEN
Cytochrome P450 2C19, sequence (P33261 whole entry): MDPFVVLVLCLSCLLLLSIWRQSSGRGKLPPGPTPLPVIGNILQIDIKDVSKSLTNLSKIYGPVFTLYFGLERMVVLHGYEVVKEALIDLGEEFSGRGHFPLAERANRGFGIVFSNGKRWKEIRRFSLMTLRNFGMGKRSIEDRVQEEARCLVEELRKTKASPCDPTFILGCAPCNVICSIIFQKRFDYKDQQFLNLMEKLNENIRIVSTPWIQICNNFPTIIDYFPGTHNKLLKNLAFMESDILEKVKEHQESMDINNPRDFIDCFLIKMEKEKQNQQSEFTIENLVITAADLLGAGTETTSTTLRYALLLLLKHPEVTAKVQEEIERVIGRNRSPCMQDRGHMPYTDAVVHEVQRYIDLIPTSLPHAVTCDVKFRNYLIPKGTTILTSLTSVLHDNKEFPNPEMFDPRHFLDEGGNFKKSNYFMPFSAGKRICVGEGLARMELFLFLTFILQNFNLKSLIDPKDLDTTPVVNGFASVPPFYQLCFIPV
DNA dC->dU-editing enzyme APOBEC-3A, sequence (P31941 whole entry): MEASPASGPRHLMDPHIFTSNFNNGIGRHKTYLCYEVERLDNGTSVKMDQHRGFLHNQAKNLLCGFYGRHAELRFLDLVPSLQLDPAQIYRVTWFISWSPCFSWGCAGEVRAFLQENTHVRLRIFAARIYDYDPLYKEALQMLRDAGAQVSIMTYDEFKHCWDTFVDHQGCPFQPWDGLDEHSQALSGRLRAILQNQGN

With `COc1ccc(N(CC(=O)NC2CCCCC2)C(=O)c2ccc(C)s2)c(OC)c1` the CC50 [1] was 43.8 µM (active) and the IC50 [2] was 10.9 µM (active).
For `CCCc1ccc(Oc2c(C)n[nH]c2-c2ccc(O)c(C)c2O)cc1`, the EC50 [3] was 4.42 µM (active) and the EC50 [4] was 4.88 µM (active).
In the case of `C=CCN1C(=O)NC(=O)/C(=C(/CC)Nc2ccc(N(CC)CC)cc2)C1=O`, the EC50 [3] is reported as > 20 µM (not active), the EC50 [5] is reported as 1.23 µM (active) and the EC50 [6] is reported as 2.03 µM (active). The EC50 [4] was > 20 µM (not active).
For `COc1cc(SC)ccc1C(=O)Nc1c(C)cccc1C`, the CC50 [7] was > 40 µM (active).
For `COc1ccccc1OCC(=O)Nn1c(=S)[nH]c2ncccc2c1=O`, the IC50 [8] was > 66 µM (inactive) and the IC50 [9] was > 66 µM (inactive).
In the case of `CCOC(=O)C1=C(N)N2C(=O)C(C)SC2=C(C(=O)OC)C1c1ccccc1OC` (configuration not stated), the AC50 [10] is reported as 0.982 µM (active).
With `COc1ccc(OCc2n[nH]c(=S)n2N)cc1` the IC50 [11] was 7.1 µM (active), the IC50 [12] was 21.4 µM (active) and the IC50 [13] was > 100 µM (inactive).
For `CN(C)c1oc(-c2ccccc2[N+](=O)[O-])nc1C#N`, the IC50 [8] was > 66 µM (inactive) and the IC50 [9] was > 66 µM (inactive).
In the case of `CSc1ccc(NC(=O)Nc2cc(C)ccn2)cc1`, the AC50 [14] is reported as 9.27 µM (active), the AC50 [15] is reported as 3.7 µM (active) and the AC50 [16] is reported as 3.98 µM (inconclusive).
For `CCN1CCN(C(=O)C(C)Nc2cc(Cl)c(OC)cc2OC)CC1` (configuration not stated), the IC50 [12] was > 50 µM (not active).
For `Cc1ccc(N2C(=O)C3C4C=CC(CN=C(S)N5CCN(c6ccccc6)CC5)(O4)C3C2=O)cc1` (configuration not stated), the AC50 [10] was 14.9 µM (active).
With `Cc1ccc(Cl)c2sc(NC(=O)C3=COCCO3)nc12` the IC50 [17] was 63.4 µM (active), the IC50 [18] was 13.1 µM (active) and the IC50 [19] was > 100 µM (inactive).
For `Cc1cc(C)c(S(=O)(=O)N2CCCCC2CCNC(=O)C(=O)NC2CC2)c(C)c1` (configuration not stated), the CC50 [1] was 20.3 µM (active) and the IC50 [2] was 4.37 µM (active).
